Laboratory results: article PMC9288506, “Compounds activating VCP D1 ATPase enhance both autophagic and proteasomal neurotoxic protein clearance” (Nature Communications, 2022)

Columns and labels:
TYRO3 (RSE) = TYRO3 (RSE) (Homo sapiens, UniProt Q06418); assay: biochemical; design: Thermo Fisher in vitro kinase panel, per cent inhibition of kinase activity at 10 uM
Experimental: (§1) Kinase profiling of SMER28 and analogs SMER28 and analogs were tested at 10 µM in a panel of 123 kinases at ThermoFisher Scientific. Follow-up of selected kinases for SMER28 and analogs was also performed at ThermoFisher Scientific. Data are shown in Supplementary Data 2 and 3. […] An inhibition of PIK3C could induce autophagy, mediated by signaling through the AKT/mTOR axis[45].

MAP3K9 (MLK1) = MAP3K9 (MLK1) (Homo sapiens, UniProt P80192); assay: biochemical; design: Thermo Fisher in vitro kinase panel, per cent inhibition of kinase activity at 10 uM
Experimental: as §1

KDR (VEGFR2) = KDR (VEGFR2) (Homo sapiens, UniProt P35968); assay: biochemical; design: Thermo Fisher in vitro kinase panel, per cent inhibition of kinase activity at 10 uM
Experimental: as §1

PAK4 = PAK4 (Homo sapiens, UniProt O96013); assay: biochemical; design: Thermo Fisher in vitro kinase panel, per cent inhibition of kinase activity at 10 uM
Experimental: as §1

CAMK1 (CaMK1) = CAMK1 (CaMK1) (Homo sapiens, UniProt Q14012); assay: biochemical; design: Thermo Fisher in vitro kinase panel, per cent inhibition of kinase activity at 10 uM
Experimental: as §1

RET V804M = RET V804M (Homo sapiens, UniProt P07949, V804M); assay: biochemical; design: Thermo Fisher in vitro kinase panel, per cent inhibition of kinase activity at 10 uM
Experimental: as §1

BTK = BTK (Homo sapiens, UniProt Q06187); assay: biochemical; design: Thermo Fisher in vitro kinase panel, per cent inhibition of kinase activity at 10 uM
Experimental: as §1

PIK3C2A (PI3K-C2 alpha) = PIK3C2A (PI3K-C2 alpha) (Homo sapiens, UniProt O00443); assay: biochemical; design: Thermo Fisher in vitro kinase panel, per cent inhibition of kinase activity at 10 uM
Experimental: as §1

AURKC (Aurora C) = AURKC (Aurora C) (Homo sapiens, UniProt Q9UQB9); assay: biochemical; design: Thermo Fisher in vitro kinase panel, per cent inhibition of kinase activity at 10 uM
Experimental: as §1

RET V804L = RET V804L (Homo sapiens, UniProt P07949, V804L); assay: biochemical; design: Thermo Fisher in vitro kinase panel, per cent inhibition of kinase activity at 10 uM
Experimental: as §1

FGFR1 = FGFR1 (Homo sapiens, UniProt P11362); assay: biochemical; design: Thermo Fisher in vitro kinase panel, per cent inhibition of kinase activity at 10 uM
Experimental: as §1

FES (FPS) = FES (FPS) (Homo sapiens, UniProt P07332); assay: biochemical; design: Thermo Fisher in vitro kinase panel, per cent inhibition of kinase activity at 10 uM
Experimental: as §1

EGFR (ErbB1) T790M L858R = EGFR (ErbB1) T790M L858R (Homo sapiens, UniProt P00533, L858R/T790M); assay: biochemical; design: Thermo Fisher in vitro kinase panel, per cent inhibition of kinase activity at 10 uM
Experimental: as §1

PDK1 = biological target: T1, PDK1 (Homo sapiens, UniProt O15530); assay: biochemical; design: Thermo Fisher in vitro kinase panel, per cent inhibition of kinase activity at 10 uM
T1 construct: gene PDPK1
Experimental: as §1

CDK7/cyclin H/MNAT1 = CDK7/cyclin H/MNAT1 (Homo sapiens, UniProt P50613); assay: biochemical; design: Thermo Fisher in vitro kinase panel, per cent inhibition of kinase activity at 10 uM
Experimental: as §1

STK4 (MST1) = STK4 (MST1) (Homo sapiens, UniProt Q13043); assay: biochemical; design: Thermo Fisher in vitro kinase panel, per cent inhibition of kinase activity at 10 uM
Experimental: as §1

YES1 = YES1 (Homo sapiens, UniProt P07947); assay: biochemical; design: Thermo Fisher in vitro kinase panel, per cent inhibition of kinase activity at 10 uM
Experimental: as §1

NUAK1 (ARK5) = NUAK1 (ARK5) (Homo sapiens, UniProt O60285); assay: biochemical; design: Thermo Fisher in vitro kinase panel, per cent inhibition of kinase activity at 10 uM
Experimental: as §1

ROCK1 = ROCK1 (Homo sapiens, UniProt Q13464); assay: biochemical; design: Thermo Fisher in vitro kinase panel, per cent inhibition of kinase activity at 10 uM
Experimental: as §1

EEF2K = EEF2K (Homo sapiens, UniProt O00418); assay: biochemical; design: Thermo Fisher in vitro kinase panel, per cent inhibition of kinase activity at 10 uM
Experimental: as §1

CAMK2B (CaMKII beta) = CAMK2B (CaMKII beta) (Homo sapiens, UniProt Q13554); assay: biochemical; design: Thermo Fisher in vitro kinase panel, per cent inhibition of kinase activity at 10 uM
Experimental: as §1

FGFR3 = FGFR3 (Homo sapiens, UniProt P22607); assay: biochemical; design: Thermo Fisher in vitro kinase panel, per cent inhibition of kinase activity at 10 uM
Experimental: as §1

MINK1 = MINK1 (Homo sapiens, UniProt Q8N4C8); assay: biochemical; design: Thermo Fisher in vitro kinase panel, per cent inhibition of kinase activity at 10 uM
Experimental: as §1

MARK2 = MARK2 (Homo sapiens, UniProt Q7KZI7); assay: biochemical; design: Thermo Fisher in vitro kinase panel, per cent inhibition of kinase activity at 10 uM
Experimental: as §1

[1] = biological target: T2, VCP (p97, Valosin-containing protein) (Homo sapiens, UniProt P55072); assay: SPR (also DARTS, LiP-MS, competition pulldown, ATPase activation); format: binding
T2 construct: Full-length VCP (6xHis-tag)

Chain of AURKC (Aurora C) (Q9UQB9 whole entry): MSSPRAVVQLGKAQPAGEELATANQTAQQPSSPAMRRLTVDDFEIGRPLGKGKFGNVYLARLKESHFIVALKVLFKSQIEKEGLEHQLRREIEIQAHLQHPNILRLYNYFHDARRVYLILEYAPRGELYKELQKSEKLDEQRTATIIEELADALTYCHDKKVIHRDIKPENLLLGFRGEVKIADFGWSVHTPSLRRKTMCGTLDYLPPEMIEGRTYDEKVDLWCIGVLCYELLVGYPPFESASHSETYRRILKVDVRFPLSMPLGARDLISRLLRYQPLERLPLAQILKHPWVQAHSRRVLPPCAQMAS
Chain of STK4 (MST1) (Q13043 whole entry): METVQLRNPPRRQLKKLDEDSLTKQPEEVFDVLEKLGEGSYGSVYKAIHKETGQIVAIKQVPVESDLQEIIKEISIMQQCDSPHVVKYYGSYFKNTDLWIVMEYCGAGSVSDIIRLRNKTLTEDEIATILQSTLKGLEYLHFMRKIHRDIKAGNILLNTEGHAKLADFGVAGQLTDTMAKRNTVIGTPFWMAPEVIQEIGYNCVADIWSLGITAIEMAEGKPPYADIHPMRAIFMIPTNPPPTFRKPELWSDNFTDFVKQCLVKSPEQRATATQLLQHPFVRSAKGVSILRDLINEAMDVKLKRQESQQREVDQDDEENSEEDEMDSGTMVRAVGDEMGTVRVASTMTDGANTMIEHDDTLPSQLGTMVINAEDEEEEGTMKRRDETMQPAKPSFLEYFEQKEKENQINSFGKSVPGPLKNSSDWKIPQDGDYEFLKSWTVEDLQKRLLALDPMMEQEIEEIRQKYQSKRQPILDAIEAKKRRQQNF
Chain of PAK4 (O96013 whole entry): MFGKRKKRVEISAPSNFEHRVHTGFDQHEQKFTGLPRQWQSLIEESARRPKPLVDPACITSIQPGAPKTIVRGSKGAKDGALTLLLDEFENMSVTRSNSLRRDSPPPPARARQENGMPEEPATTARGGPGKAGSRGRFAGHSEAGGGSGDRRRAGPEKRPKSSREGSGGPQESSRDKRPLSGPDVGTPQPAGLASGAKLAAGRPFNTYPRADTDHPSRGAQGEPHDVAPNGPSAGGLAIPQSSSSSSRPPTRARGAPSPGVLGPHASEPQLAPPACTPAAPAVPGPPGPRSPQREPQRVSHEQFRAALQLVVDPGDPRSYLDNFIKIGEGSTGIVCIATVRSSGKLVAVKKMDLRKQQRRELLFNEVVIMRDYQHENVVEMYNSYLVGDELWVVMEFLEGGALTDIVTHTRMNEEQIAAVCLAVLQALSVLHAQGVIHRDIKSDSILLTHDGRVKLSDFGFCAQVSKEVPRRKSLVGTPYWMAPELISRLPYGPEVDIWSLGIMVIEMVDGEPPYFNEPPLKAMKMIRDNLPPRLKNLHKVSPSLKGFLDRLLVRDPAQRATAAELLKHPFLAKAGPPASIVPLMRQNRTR
Chain of MAP3K9 (MLK1) (P80192 whole entry): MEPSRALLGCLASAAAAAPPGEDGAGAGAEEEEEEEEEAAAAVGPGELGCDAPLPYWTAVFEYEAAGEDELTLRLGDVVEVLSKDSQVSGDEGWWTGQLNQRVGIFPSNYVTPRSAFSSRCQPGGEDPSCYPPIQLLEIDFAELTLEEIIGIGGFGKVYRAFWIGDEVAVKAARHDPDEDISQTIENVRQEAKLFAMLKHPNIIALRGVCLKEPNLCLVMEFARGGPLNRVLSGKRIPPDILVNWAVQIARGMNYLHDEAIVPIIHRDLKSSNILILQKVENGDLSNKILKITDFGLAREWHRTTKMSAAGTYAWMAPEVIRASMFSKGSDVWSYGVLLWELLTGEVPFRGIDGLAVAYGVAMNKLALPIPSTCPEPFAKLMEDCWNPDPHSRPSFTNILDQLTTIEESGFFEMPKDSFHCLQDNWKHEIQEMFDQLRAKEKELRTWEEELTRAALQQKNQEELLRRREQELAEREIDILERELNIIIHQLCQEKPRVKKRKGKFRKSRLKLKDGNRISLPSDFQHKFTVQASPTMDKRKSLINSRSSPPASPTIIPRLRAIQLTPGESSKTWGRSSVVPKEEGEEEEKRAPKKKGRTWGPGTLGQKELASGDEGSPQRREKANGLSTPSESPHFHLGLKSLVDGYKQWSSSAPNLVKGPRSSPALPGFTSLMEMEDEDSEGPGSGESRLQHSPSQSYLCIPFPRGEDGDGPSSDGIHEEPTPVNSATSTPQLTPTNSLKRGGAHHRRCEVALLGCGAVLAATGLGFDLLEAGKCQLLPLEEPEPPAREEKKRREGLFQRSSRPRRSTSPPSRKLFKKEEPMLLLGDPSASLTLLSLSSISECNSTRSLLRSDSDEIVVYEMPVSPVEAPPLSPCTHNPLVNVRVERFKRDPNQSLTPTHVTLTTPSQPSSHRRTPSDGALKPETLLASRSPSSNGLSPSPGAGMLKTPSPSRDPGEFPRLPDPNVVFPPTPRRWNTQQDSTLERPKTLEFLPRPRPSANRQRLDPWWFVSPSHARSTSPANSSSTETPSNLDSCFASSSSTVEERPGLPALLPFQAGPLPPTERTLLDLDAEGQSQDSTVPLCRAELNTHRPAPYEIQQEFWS
Chain of CDK7/cyclin H/MNAT1 (P50613 whole entry): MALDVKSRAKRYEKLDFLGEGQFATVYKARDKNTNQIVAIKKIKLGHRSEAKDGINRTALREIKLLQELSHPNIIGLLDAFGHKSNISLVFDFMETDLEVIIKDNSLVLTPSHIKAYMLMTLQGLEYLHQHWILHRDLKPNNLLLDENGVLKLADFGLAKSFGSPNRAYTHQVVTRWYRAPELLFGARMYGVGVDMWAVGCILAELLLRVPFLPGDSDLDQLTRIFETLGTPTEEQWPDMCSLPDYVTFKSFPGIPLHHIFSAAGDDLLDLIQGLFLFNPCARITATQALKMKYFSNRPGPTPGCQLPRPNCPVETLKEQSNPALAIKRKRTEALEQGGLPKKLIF
Chain of CDK7/cyclin H/MNAT1 (P51946 whole entry partner): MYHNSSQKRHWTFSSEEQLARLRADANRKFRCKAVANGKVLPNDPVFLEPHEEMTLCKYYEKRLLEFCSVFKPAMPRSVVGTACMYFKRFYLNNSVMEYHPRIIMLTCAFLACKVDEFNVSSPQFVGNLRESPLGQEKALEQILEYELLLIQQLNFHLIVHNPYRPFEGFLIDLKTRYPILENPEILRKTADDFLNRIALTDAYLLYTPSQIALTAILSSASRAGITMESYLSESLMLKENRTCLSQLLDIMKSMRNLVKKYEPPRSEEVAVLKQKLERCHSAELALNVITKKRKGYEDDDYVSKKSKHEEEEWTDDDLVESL
Chain of CDK7/cyclin H/MNAT1 (P51948 whole entry partner): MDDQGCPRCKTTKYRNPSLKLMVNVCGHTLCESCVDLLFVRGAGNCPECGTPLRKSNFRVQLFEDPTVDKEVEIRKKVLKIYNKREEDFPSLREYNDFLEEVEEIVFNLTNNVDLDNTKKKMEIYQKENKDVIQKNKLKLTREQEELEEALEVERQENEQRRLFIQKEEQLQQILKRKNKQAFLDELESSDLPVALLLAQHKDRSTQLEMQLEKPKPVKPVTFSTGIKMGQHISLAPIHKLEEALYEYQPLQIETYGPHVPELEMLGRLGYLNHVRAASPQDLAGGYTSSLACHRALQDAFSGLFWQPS
Chain of MARK2 (Q7KZI7 whole entry): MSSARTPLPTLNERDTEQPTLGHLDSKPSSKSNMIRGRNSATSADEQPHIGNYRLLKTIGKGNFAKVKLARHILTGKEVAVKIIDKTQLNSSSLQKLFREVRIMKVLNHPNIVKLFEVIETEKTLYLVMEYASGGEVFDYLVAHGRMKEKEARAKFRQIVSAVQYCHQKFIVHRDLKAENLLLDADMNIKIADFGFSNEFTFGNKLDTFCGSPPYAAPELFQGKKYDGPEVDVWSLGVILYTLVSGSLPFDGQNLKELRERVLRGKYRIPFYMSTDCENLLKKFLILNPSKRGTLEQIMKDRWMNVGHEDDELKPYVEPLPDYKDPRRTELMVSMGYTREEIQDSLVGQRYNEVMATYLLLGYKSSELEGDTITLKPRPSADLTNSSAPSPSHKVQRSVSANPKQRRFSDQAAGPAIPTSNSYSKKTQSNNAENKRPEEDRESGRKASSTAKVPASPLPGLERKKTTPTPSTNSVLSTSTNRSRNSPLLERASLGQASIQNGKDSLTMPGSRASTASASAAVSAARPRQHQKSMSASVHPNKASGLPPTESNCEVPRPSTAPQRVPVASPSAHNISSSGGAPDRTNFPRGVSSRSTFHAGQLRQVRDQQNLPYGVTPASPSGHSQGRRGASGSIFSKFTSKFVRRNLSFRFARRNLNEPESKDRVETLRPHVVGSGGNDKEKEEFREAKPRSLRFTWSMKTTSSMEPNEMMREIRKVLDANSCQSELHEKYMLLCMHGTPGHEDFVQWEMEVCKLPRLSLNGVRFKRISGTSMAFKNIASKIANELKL
Chain of YES1 (P07947 whole entry): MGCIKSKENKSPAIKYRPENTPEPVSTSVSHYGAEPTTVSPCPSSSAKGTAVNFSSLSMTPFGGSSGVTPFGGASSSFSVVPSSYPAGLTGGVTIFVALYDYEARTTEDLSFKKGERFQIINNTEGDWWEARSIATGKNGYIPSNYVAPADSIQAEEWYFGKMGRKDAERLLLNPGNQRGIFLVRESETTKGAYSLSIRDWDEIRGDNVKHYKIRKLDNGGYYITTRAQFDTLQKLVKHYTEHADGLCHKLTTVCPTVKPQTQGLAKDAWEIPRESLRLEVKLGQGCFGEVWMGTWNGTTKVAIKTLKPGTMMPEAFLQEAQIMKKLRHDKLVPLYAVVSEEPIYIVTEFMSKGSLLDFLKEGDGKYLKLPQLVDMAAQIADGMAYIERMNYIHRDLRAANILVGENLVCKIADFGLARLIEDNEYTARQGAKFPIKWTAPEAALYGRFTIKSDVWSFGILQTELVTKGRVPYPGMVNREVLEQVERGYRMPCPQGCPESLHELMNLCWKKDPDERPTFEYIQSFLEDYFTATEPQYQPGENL

Structure (SMILES): C=CCNc1ncnc2ccc(Br)cc12 [SMER28]
- inhibition at 10 µM (TYRO3 (RSE)): 11%
- inhibition at 10 µM (MAP3K9 (MLK1)): -2%
- inhibition at 10 µM (KDR (VEGFR2)): 13%
- inhibition at 10 µM (PAK4): 0%
- inhibition at 10 µM (CAMK1 (CaMK1)): 13%
- inhibition at 10 µM (RET V804M): 38%
- inhibition at 10 µM (BTK): 8%
- inhibition at 10 µM (PIK3C2A (PI3K-C2 alpha)): 22%
- inhibition at 10 µM (AURKC (Aurora C)): -6%
- inhibition at 10 µM (RET V804L): 30%
- inhibition at 10 µM (FGFR1): 27%
- inhibition at 10 µM (FES (FPS)): 8%
- inhibition at 10 µM (EGFR (ErbB1) T790M L858R): 15%
- inhibition at 10 µM (PDK1): -7%
- inhibition at 10 µM (CDK7/cyclin H/MNAT1): 34%
- inhibition at 10 µM (STK4 (MST1)): 11%
- inhibition at 10 µM (YES1): 13%
- inhibition at 10 µM (NUAK1 (ARK5)): 40%
- inhibition at 10 µM (ROCK1): -13%
- inhibition at 10 µM (EEF2K): 2%
- inhibition at 10 µM (CAMK2B (CaMKII beta)): 4%
- inhibition at 10 µM (FGFR3): -7%
- inhibition at 10 µM (MINK1): 45%
- inhibition at 10 µM (MARK2): 9%
- Kd [1]: ~0.75 µM
